In data set [1] the target is T1, human CYP 11B1 (hCYP11B1) (Homo sapiens, UniProt P15538).
T1 construct: expressed in transfected cells; host or cells: V79 cells (mitochondrial fraction)
T1 sequence (P15538 25-503): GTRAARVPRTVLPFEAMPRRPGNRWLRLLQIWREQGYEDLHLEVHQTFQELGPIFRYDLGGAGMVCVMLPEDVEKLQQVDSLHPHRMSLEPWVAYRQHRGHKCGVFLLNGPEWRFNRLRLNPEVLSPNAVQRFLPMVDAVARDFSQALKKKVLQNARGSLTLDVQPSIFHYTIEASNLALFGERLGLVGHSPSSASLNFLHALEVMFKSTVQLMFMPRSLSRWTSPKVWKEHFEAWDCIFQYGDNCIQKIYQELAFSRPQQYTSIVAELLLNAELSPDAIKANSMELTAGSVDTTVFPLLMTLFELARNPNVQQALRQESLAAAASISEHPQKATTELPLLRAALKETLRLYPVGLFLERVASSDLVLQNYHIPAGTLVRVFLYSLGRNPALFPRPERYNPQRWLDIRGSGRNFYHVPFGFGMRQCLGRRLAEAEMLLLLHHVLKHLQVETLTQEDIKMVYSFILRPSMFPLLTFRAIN
Kind of data set: Assay of hCYP11B1 inhibition (11-deoxycortisol to cortisol). The data set is classed as biochemical. The settings on record: mitochondrial fraction of V79 cells stably expressing hCYP11B1; substrate 11-deoxycortisol; read-out: Inhibition constant (Ki) hCYP11B1. Here is the method:
The inhibitory effects of Compound A on human CYP 11B1 (hCYP11B1) and human CYP11B2 (hCYP11B2) enzyme activity were evaluated by determining the enzymatic conversion rates of 11-deoxycortisol to cortisol for hCYP11B1 and 11-DOC to aldosterone for hCYP11B2.

Data set [2] is described as follows: 13-week repeat-dose oral toxicology study in rats. The format is in vivo, rat. The settings on record: both sexes, Sprague Dawley, rat, in vivo, oral, 13-week, read-out: no observed adverse effect level (NOAEL). Here is the method: (§1) The toxicologic profile of Compound A was assessed in several toxicology studies, including 13-week repeat-dose oral studies in Sprague Dawley rats and cynomolgus monkeys, a standard battery of genotoxicity studies, preliminary embryo-fetal development studies in rats and rabbits, and in vitro and in vivo phototoxicity studies. Rats and monkeys were selected for the general toxicology studies on the basis of pharmacology and metabolism data that indicated these animals would have metabolism similar to that of humans. Studies were performed in accordance with GLP regulations.
(§2) Doses in the 13-week toxicology studies were 0, 50, 150, 450 (female), and 600 (male) mg/kg/d in Sprague Dawley rats. In cynomolgus monkeys (females and males), the doses were 0, 10, 30, and 100 mg/kg/d. Hematoxylin-and-eosin-stained sections (nominal thickness of approximately 5 μm) were prepared from the formalin-fixed paraffin-embedded organs/tissues of all animals in the toxicology studies.

In another data set the test system is Sprague Dawley rats. Kind of data set: 13-week repeat-dose oral toxicology study in rats. The format is in vivo, rat. The settings on record: 13-week daily dosing, doses ≥150 mg/kg/d. Here is the method: as §1, §2
The nature of data set [3]: Phase 1 part 2 multiple ascending dose: pharmacokinetics. The format is in vivo, human. The settings on record: for half-life: male, human, plasma, oral. The procedure: A 4-part, Phase 1 randomized, double-blind, placebo-controlled, first-in-human study was performed to determine the safety, tolerability, PK, and PD of single ascending doses (SADs; part 1) and multiple ascending doses (MADs; part 2) of Compound A HBr in healthy participants. The study also assessed whether there were sex (part 3) and age-related (part 4) effects on the PK of a single dose of Compound A HBr. The study was approved by the local independent ethics committee; the BEBO foundation in Assen, Netherlands; and the Central Committee on Research Involving Human Subjects in The Hague, Netherlands; and conducted according to the provisions of the Declaration of Helsinki. Written informed consent was obtained from each study participant before conducting any protocol-related procedures.
In part 2, Compound A HBr or placebo was administered to a total of 36 healthy Caucasian men aged 19 to 54 years (inclusive) in 3 cohorts of 12 participants each. In each cohort, 9 participants were randomized to receive multiple doses of Compound A HBr and 3 participants were randomized to receive matching placebo. The participants received daily doses in the fed state from Day 1 to Day 7. The doses were administered in an ascending order per cohort. Progression to the next dose level and dose selection were based on available data from part 1 and the preceding dose cohort in part 2 (safety, tolerability, and PD data [up to 48 hours post-final dose] and available PK data [up to 24 hours post-final dose] from a minimum of 10 participants [Compound A HBr n≥7] in the preceding dose cohort). The final dose levels of Compound A HBr for part 2 were 40, 120, and 360 mg. An ACTH challenge test was performed on Day −2 and on Day 6 to evaluate Compound A HBr selectivity for aldosterone synthesis. Plasma concentrations of aldosterone and 11-deoxycortisol and serum concentrations of cortisol and 11-DOC were measured pre-ACTH dose and 30 and 60 minutes post-ACTH dose on Day −2 and Day 6.
Plasma PK parameters were derived by non-compartmental analysis using WinNonlin® (version 6.3). Dose proportionality was assessed using the power model with AUC0-∞, AUC0-last, and Cmax for part 1 (SAD) and with AUC0-last, AUC0-∞, AUC0-τ, and Cmax for part 2 (MAD). A linear model (ln(Y)=α+β×ln(X), where Y is the pharmacokinetic parameter and X is the dose) was used to fit the power model, after log-transformation of the parameters. Dose proportionality was concluded if the 95% confidence interval (CI) for slope (β) included the value 1.
An analytical method for the determination of Compound A in human plasma (dipotassium ethylenediaminetetraacetic acid [K2-EDTA]) and human urine using solid-phase extraction and high-performance liquid chromatography with mass spectrometric detection was successfully validated over the concentration range 0.1000 ng/mL (lower limit of quantification) to 100.0 ng/mL prior to initiation of the clinical trial. […] For all other analytes, validated quantitative measurement methods were used.

Structures are written as SMILES. Read-outs that look alike come from different tables or passages of the source.

For orientation: Ki means the dissociation constant of the complex between target and ligand, obtained from inhibition or displacement. The term NOAEL denotes the highest dose or exposure tested at which no adverse effect was seen.

In the case of `CC(=O)N[C@H]1CC[C@H](NC(=O)CN2CCN(c3nncc(-c4ccc(C)cc4)n3)CC2)CC1` [Compound A], in data set [1], the Ki was 475 nM. Further, the NOAEL at 13 weeks in data set [2] stood at 50 mg/kg/day. Moreover, the histopathological findings entry in the data set with Sprague Dawley rats is “vacuolation of zona fasciculata cells and hypertrophy of zona glomerulosa cells in the adrenal glands”.
Turning to `CC(=O)N[C@H]1CC[C@H](NC(=O)CN2CCN(c3nncc(-c4ccc(C)cc4)n3)CC2)CC1` [Compound A HBr], the “AUC0-24, mean (SD)” value in data set [3] (40 mg once daily, Day 1, fed) was 1574 (282) ng × h/mL; in data set [3] (40 mg once daily, Day 7, fed), 1795 (312) ng × h/mL; in data set [3] (120 mg once daily, Day 1, fed), 4876 (1024) ng × h/mL; in data set [3] (120 mg once daily, Day 7, fed), 5816 (1315) ng × h/mL; in data set [3] (360 mg once daily, Day 1, fed) it was 19335 (3111) ng × h/mL; in data set [3] (360 mg once daily, Day 7, fed) it was 21825 (3955) ng × h/mL. The “Cmax, mean (SD)” value in data set [3] (40 mg once daily, Day 1, fed) is given as 252 (64) ng/mL; in data set [3] (40 mg once daily, Day 7, fed), 365 (46) ng/mL; in data set [3] (120 mg once daily, Day 1, fed), 887 (291) ng/mL; in data set [3] (120 mg once daily, Day 7, fed), 1039 (343) ng/mL; in data set [3] (360 mg once daily, Day 1, fed) it was 3220 (1171) ng/mL; in data set [3] (360 mg once daily, Day 7, fed), 3812 (1282) ng/mL. Besides, the “Tmax, median and range” value is given as 3 (0.5-5) h in data set [3] (40 mg once daily, Day 1, fed); 1.5 (0.5-5) h in data set [3] (40 mg once daily, Day 7, fed); 3 (0.5-8) h in data set [3] (120 mg once daily, Day 1, fed); 2.5 (1-4)^ h in data set [3] (120 mg once daily, Day 7, fed); 3 (2-5) h in data set [3] (360 mg once daily, Day 1, fed); 2 (1-3) h in data set [3] (360 mg once daily, Day 7, fed). Further, the “T 1/2, mean (SD)” value in data set [3] (40 mg once daily, Day 7, fed) is reported as 9 (2) h; in data set [3] (120 mg once daily, Day 7, fed), 12 (2) h; in data set [3] (360 mg once daily, Day 7, fed) it was 9 (2) h. Also, the half-life was 5 h in data set [3] (40 mg once daily, Day 1, fed, read-out: T 1/2, mean (SD) (converted)); 4 h in data set [3] (120 mg once daily, Day 1, fed, read-out: T 1/2, mean (SD) (converted)); 4 h in data set [3] (360 mg once daily, Day 1, fed, read-out: T 1/2, mean (SD) (converted)); roughly 10 h in data set [3] (once-daily dosing, read-out: t1/2 on Day 7 (converted)). Further, the “Steady state achieved by” value in data set [3] (once-daily 40 to 360 mg) was roughly 5 days.

Source of the values: patent publication US20250099475A1, “METHODS OF TREATING HYPERTENSION BY PERIODIC SUPPRESSION OF ALDOSTERONE SYNTHASE” (Mineralys Therapeutics, Inc., priority 2022, published 2025).
